# Results as given in ChEMBL document CHEMBL1201862, “PubChem BioAssay data set” (2004).
# Active and inactive are the calls of the source.
# Columns and labels:
# INS1 = assay: beta cell apoptosis inhibitors, cytokine rescue, dose response, luminescence, retest (AID 449756); format: functional, cell-based; conditions: Rattus norvegicus;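 note: cell death triggered by IL-1 beta plus TNF-alpha plus IFN-gamma mixture; protective hits raise ATP signal compared with cytokine alone wells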
# [1] = target: Heat shock protein HSP 90-alpha (Homo sapiens, UniProt P07900); assay: Luminescence-based dose response biochemical high throughput screening assay for inhibitors of the Heat Shock Protein 90 (HSP90). [Related pubchem assays: 1831 (Summary AID.), 1846 (Confirmation screen.), 1789 (Primary screen.)]
# [2] = Jurkat T cell cytotoxicity, dose response, cytotoxicity control for P. falciparum gametocyte viability project, luminescence (AID 1117277); format: functional, cell-based;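 note: potency reflects loss of cellular ATP meaning fewer viable cells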
# [3] = P. falciparum late gametocyte killing, dose response, luminescence (AID 1117278); format: functional, cell-based;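 note: gametocytes exposed to compound for 24 hours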
# Caspase-6 = target: T1, Caspase-6 (Homo sapiens, UniProt P55212); assay: human caspase-6 inhibitors, dose response, biochemical, VEID-R110 fluorescence, cherry-pick (AID 720632)
# T1 sequence (P55212 whole entry): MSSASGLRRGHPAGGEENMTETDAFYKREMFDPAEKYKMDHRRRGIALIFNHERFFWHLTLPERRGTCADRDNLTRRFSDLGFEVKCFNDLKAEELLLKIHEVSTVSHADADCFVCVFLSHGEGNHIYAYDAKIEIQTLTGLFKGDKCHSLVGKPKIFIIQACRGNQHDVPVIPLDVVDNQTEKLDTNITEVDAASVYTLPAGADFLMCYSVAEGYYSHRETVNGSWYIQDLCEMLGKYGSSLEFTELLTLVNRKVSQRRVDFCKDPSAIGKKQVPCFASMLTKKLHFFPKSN
# [4] = THP-1 cell cytotoxicity, dose response, cytotoxicity control for Vif-APOBEC3G degradation inhibitor project, THP-1 cells (AID 1117359); format: functional; conditions: Human immunodeficiency virus 1, THP-1
# [5] = inhibitors of Vif binding to APOBEC3G peptide, primary screen, biochemical, TR-FRET, GST-Vif 1-94, biotin-A3G peptide, dose response retest (AID 1117319); format: functional;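 note: TR-FRET signal of purified GST-Vif binding a biotinylated A3G peptide; inhibitors lower the FRET signal by blocking Vif and A3G binding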
# [6] = inhibitors of SNCA 5'UTR-driven reporter translation, confirmation, H4 neuroglioma cells, luminescence (AID 1988); format: functional, cell-based
# [7] = cytotoxicity in HEK-293T cells, dose response, cytotoxicity control for BCR NF-kB inhibitor project, luminescence, B-cell screen hits (AID 489021); format: functional, cell-based;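 note: HEK-293T cells carrying an NF-kB luciferase reporter; cells exposed to compound for about 14 hours before viability readout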
# [8] = inhibitors of firefly luciferase expression or activity, dose response, H4 neuroglioma cells, luminescence (AID 1990); format: functional, cell-based
# [9] = Luminescence Cell-Based Dose Response HTS to Identify Inhibitors of 5'UTR Stem-Loop Driven Prion Protein mRNA Translation in H4 Neuroglioblastoma Cells. [Related pubchem assays: 1827 (Project Summary), 1813 (Primary HTS)]; format: functional
# H9c2 = assay: cells; format: functional, cell-based; conditions: Rattus norvegicus, H9c2, Myocardium;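 note: confirmatory concentration-response retest of ultra-high-throughput screening hits for modulation of myocardial damage; cell death induced by hydrogen peroxide oxidative stress; compound pretreatment for 60 min then peroxide exposure for 2 h; potency is for protecting the cells against peroxide damage rather than for killing them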
# [10] = growth suppression of beta-catenin-knockout colon cells, dose response, cell-based, HCT116, human colon tumor (AID 1045); format: functional;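 note: HCT116 colon tumor cells with beta catenin knocked out; cells exposed to compound for 60 hours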
# [11] = growth suppression of PTEN-null colon cells, dose response, cell-based, HCT116 PTEN knockout (AID 1047); format: functional;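 note: HCT116 colon tumor cells with PTEN knocked out; cells exposed to compound for 60 hours before readout; potency for loss of cell viability measured by luminescence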
# [12] = inhibitors of PGC1a acetylation in cells, dose response, cell-based, cherry-picked samples (AID 720514); format: functional;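 note: potency may reflect raised or lowered acetylation signal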
# [13] = target: Disintegrin and metalloproteinase domain-containing protein 17 (Homo sapiens, UniProt P78536); assay: exosite inhibitors of ADAM17, dose response, biochemical (AID 743260)
# [14] = ADAM10 protease inhibitors, dose response, selectivity assay for ADAM17 exosite inhibitor project, biochemical, FRET peptide substrate, recombinant human ADAM10 (AID 743259);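 note: ADAM10 enzyme cleaving a FRET peptide substrate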
# [15] = inhibitors of clade B AD8 Env fusion, dose response, cell-based, cherry-pick (AID 652062); format: functional;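 note: luciferase signal from cell-cell fusion driven by HIV-1 clade B AD8 Env; potency is for inhibitors of fusion seen as a drop in luminescence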
# [16] = inhibitors of HIV Env-driven cell fusion, dose response, cherry-pick (AID 652057); format: functional, cell-based
# [17] = ZM109 Env clade C HIV-1 fusion inhibitors, dose response, HeLa effector, CEM target cells, luciferase, cherry-pick (AID 652058); format: functional, cell-based
# BJ [18] = assay: cytotoxicity toward BJ-TERT-LT-ST fibroblasts, dose response, cell-based, RAS-independent, luminescence (AID 1935); format: functional; conditions: Homo sapiens;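 note: BJ fibroblasts immortalized with TERT plus LT and ST oncogenes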
# BJ [19] = assay: cytotoxicity toward BJ-TERT fibroblasts, dose response, cell-based, RAS-independent, luminescence (AID 1933); format: functional; conditions: Homo sapiens
# BJ [20] = assay: cells; format: functional, cell-based; conditions: Homo sapiens
# [21] = cytotoxicity toward DRD oncogenic fibroblasts, dose response, cell-based, non-viral oncogenic, luminescence (AID 1934); format: functional; conditions: Homo sapiens
# HeLa = assay: HeLa cell cytotoxicity, dose response, cytotoxicity control for MITF activator project, CellTiter-Glo luminescence, cherry-pick samples (AID 540259); format: functional, cell-based; conditions: Homo sapiens
# [22] = Luminescence Cell-Based Dose Retest to Confirm Inhibitors of Cancer Stem Cells. [Related pubchem assays (depositor defined):AID2717, AID2721]; format: functional; conditions: Homo sapiens
# [23] = target: T2, Corticotropin-releasing factor receptor 2/Corticotropin-releasing factor-binding protein (Homo sapiens, UniProt P24387+Q13324); assay: activators of CRF receptor 2 with binding protein – uHTS hits, confirmation (AID 602473); format: functional; conditions: read-out: EC50_Mean
# T2 sequence (Q13324 whole entry): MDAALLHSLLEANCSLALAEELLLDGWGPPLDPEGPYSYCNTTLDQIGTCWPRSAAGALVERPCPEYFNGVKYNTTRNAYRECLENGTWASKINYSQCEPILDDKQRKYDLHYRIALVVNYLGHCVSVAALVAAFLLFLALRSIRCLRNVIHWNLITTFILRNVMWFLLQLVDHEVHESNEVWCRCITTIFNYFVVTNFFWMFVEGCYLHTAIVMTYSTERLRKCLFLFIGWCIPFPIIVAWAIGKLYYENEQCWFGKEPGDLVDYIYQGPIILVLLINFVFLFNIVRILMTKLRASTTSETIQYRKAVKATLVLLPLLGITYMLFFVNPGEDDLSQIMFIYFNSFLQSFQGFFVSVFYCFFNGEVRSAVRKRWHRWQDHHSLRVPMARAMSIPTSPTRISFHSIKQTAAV
# T2 sequence (P24387 whole entry): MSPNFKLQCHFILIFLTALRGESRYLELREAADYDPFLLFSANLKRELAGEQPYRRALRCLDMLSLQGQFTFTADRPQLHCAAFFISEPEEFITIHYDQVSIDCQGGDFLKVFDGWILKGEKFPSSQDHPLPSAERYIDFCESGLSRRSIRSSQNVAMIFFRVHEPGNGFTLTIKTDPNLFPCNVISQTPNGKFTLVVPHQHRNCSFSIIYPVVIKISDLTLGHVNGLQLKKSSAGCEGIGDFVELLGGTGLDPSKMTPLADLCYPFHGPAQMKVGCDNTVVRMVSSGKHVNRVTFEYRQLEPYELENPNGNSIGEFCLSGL
# Disintegrin and metalloproteinase domain-containing protein 17, sequence (P78536 whole entry, the tested form may be a part): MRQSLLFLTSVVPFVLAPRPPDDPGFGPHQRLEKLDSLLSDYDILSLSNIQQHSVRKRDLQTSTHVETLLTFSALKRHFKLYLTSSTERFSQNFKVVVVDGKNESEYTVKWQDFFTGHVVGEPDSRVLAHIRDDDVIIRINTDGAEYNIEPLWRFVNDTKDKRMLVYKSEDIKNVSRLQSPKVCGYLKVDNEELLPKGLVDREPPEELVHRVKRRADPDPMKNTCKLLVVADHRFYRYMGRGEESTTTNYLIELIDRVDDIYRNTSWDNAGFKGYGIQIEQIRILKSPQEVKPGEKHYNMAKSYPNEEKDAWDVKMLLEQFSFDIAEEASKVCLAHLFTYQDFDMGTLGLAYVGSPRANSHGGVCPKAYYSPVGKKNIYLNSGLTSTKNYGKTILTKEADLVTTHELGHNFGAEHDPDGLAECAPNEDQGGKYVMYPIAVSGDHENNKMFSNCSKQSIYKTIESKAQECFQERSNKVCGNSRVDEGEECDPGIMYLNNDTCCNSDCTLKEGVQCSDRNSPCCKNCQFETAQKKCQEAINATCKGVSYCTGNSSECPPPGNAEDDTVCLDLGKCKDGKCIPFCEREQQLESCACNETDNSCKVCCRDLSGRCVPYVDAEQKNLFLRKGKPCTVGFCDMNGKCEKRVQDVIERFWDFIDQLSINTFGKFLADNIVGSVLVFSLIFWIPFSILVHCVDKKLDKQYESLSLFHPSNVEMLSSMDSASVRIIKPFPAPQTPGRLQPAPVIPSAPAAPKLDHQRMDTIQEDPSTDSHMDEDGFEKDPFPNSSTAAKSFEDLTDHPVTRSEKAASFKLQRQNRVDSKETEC
smiles,measurement,setting,value
CC(=O)CSc1ccc(-c2nc3ccccc3[nH]2)cn1,AC50,INS1,5.24 µM (active)
same,IC50,[1],8.09 µM (active)
O=S(=O)(Nc1ccncc1)c1ccccc1,IC50,[2],> 83.3 µM (inactive)
same,IC50,[3],> 109 µM (inactive)
Cc1cccc(C)c1NC1=NC(=S)N(c2ccc(C(=O)O)cc2)C12CCCCC2,IC50,[2],> 83.3 µM (inactive)
same,IC50,[3],> 109 µM (inactive)
CNS(=O)(=O)c1cccc(C(=O)OCC(=O)N2c3ccccc3NC(=O)C2(C)C)c1,AC50,Caspase-6,3 µM (active)
COc1ccc(CC(=O)OCC(=O)NCc2ccco2)cc1OC,CC50,[4],> 40 µM (active)
same,IC50,[5],> 100 µM (active)
Cc1c(CCC(=O)NCCCn2ccnc2)c(=O)oc2c(C)c3oc4c(c3cc12)CCCC4,EC50,[6],14.6 µM (active)
same,IC50,[7],63.6 µM (inactive)
same,EC50,[8],13.7 µM (active)
same,EC50,[9],17.8 µM (active)
CC(=O)Nc1ccc(Nc2nc(-c3sc(NC(C)=O)nc3C)cs2)cc1,IC50,[7],20.6 µM (inactive)
same,IC50,H9c2,> 79 µM (inactive)
Clc1cccc(-c2cc3nc4c(c(N5CCNCC5)n3n2)CCCC4)c1,EC50,[10],7.97 µM (active)
same,EC50,[11],8.22 µM (active)
O=C(CCN1CCOCC1)NCC(=O)Nc1ccc(Br)cc1C(=O)c1ccccc1,IC50,[5],> 100 µM (active)
Brc1ccc2nc(N3CCN(c4ccccc4)CC3)sc2c1,IC50,[2],> 83.2 µM (inactive)
same,IC50,[3],> 109 µM (inactive)
Cc1ccc(S(=O)(=O)N(CC(=O)N/N=C/c2cccc3c2OCCO3)c2ccccc2F)cc1,IC50,[5],> 100 µM (active)
Cc1nc(Nc2ccc(S(N)(=O)=O)cc2)sc1C(=O)Nc1ccccc1,CC50,[4],> 40 µM (active)
same,AC50,[12],3.05 µM (active)
O=C(O)c1ccc(COc2c(F)c(F)c(F)c(F)c2F)o1,IC50,[5],> 100 µM (active)
Nc1cc(OC(=O)c2c(F)cccc2Cl)nn1S(=O)(=O)c1ccccc1,IC50,[13],> 69.5 µM (inactive)
same,IC50,[14],> 69.5 µM (inactive)
CC1(O)N(Cc2ccccc2)C(=O)OC12CCCCC2 (stereo not given),IC50,[13],> 69.5 µM (inactive)
same,IC50,[14],> 69.5 µM (inactive)
COc1ccccc1NC(=O)N[C@@H]1C=C[C@H](CC(=O)N[C@H](C)c2ccccc2)O[C@H]1CO,AC50,[15],6.98 µM (active)
same,AC50,[16],8.31 µM (active)
same,AC50,[17],7.16 µM (active)
Cc1cc2c(C)cc(O)nc2cc1NC(=O)CCl,EC50,BJ [18],> 150 µM (not active)
same,EC50,BJ [19],17.7 µM (active)
same,EC50,BJ [20],> 150 µM (not active)
same,EC50,[21],42.2 µM (active)
Cc1ccc2c(c1)[C@H]1[C@H](CO2)[C@H](c2ccccc2)[C@]2(C)C(=O)N(Cc3ccc(Cl)cc3)CC(=O)N12,IC50,[13],> 69.5 µM (inactive)
same,IC50,[14],> 69.5 µM (inactive)
Cc1csc(NC(=O)CCc2c(C)nc3cc(-c4ccc(Cl)cc4)nn3c2C)n1,IC50,[7],> 80 µM (inactive)
O=C(C[C@@H]1CC[C@H]2[C@@H](COC[C@@H](O)CN2Cc2ccc(Oc3ccccc3)cc2)O1)N1CCN(c2ccccc2)CC1,AC50,[15],4.07 µM (active)
same,AC50,[16],22.3 µM (active)
same,AC50,[17],20.4 µM (active)
Cc1cccc2c1-c1sc(C(=O)N3CCCCC3)cc1CO2,AC50,HeLa,> 350 µM (inactive)
c1ccc(-c2cnnc(N3CCCCC3)n2)cc1,AC50,HeLa,191 µM (active)
CCCS(=O)(=O)Nc1cccc(-c2ccc3nnc(C)n3n2)c1,IC50,[7],> 80 µM (inactive)
CCc1ccc(-c2nc(CN3CCC(C(=O)NCCN(CC)c4ccccc4)CC3)c(C)o2)cc1,EC50,[10],6.8 µM (active)
same,EC50,[11],7.82 µM (active)
O=C(Nc1cccc(-c2csc(-c3ccccc3)n2)c1)c1cccs1,IC50,[13],> 69.5 µM (inactive)
same,IC50,[14],> 69.5 µM (inactive)
same,AC50,[22],3.38 µM (active)
COc1ccc(/C=C/c2noc(-c3ccccc3OC(C)=O)n2)cc1,IC50,[1],3.29 µM (active)
COc1ccc(S(=O)(=O)NCC(c2ccco2)N2CCc3ccccc32)cc1 (stereo not given),IC50,[13],> 69.5 µM (inactive)
same,IC50,[14],38.4 µM (inactive)
C[C@H]1CC[C@@H]2[C@@H](C)[C@H]3[C@H](C[C@H]4[C@@H]5CC=C6C[C@@H](O[C@@H]7O[C@H](CO)[C@H](O)[C@H](O[C@@H]8O[C@H](CO)[C@@H](O)[C@H](O)[C@H]8O)[C@H]7O[C@@H]7O[C@@H](C)[C@H](O)[C@@H](O)[C@H]7O)CC[C@]6(C)[C@H]5CC[C@]34C)N2C1,EC50,[6],> 120 µM (not active)
same,EC50,[10],22.1 µM (active)
same,EC50,[11],25.2 µM (active)
same,EC50,[23],9.48 µM (active)
same,EC50,[8],13.5 µM (active)
same,EC50,[9],> 120 µM (not active)
CN(CCc1ccccc1)C(=O)c1ccc(NC(=O)Cc2ccc(NC(=O)C3CCN(C(=O)CCc4ccccc4)CC3)cc2)cc1,CC50,[4],> 40 µM (active)
Cc1cc(C)n(-c2ccc(C(=O)NCc3cccs3)cc2)n1,IC50,[2],> 83.3 µM (inactive)
same,IC50,[3],> 109 µM (inactive)
CCC(C)c1ccc(OCc2ccc(C(=O)OC)o2)cc1 (stereo not given),IC50,[1],2.29 µM (active)
CC1=NN(c2ccccc2)C(=O)/C1=C\N(O)c1ccccc1,IC50,[1],2.78 µM (active)
Cc1ccc(-c2csc3ncn(CC(=O)N4CCOCC4)c(=O)c23)cc1,IC50,[2],> 83.3 µM (inactive)
same,IC50,[3],> 109 µM (inactive)
